Experimental data: ChEMBL document CHEMBL1201862, “PubChem BioAssay data set” (2004)
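How tested: cells in 96-well plates exposed to compound for 48 hours at five concentrations. GI50: concentration for 50% inhibition of growth.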 Active and inactive are the calls of the source. Rule as the data show it: active = GI50 up to about 1.1 µM and inactive = higher.

What was measured:
Experiment in all cases: DTP human tumour cell line panel, 48 h
TK-10 = system: TK-10
HCT-116 = system: HCT-116
NCI-H226 = system: NCI-H226
OVCAR-8 = system: OVCAR-8
OVCAR-4 = system: OVCAR-4
UACC-257 = system: UACC-257
NCI-H23 = system: NCI-H23
K562 = system: K562
SNB-19 = system: SNB-19
RXF 393 = system: RXF 393
RPMI-8226 = system: RPMI-8226
HT-29 = system: HT-29
SF-539 = system: SF-539
SK-OV-3 = system: SK-OV-3
SK-MEL-5 = system: SK-MEL-5
LOX IMVI = system: LOX IMVI
LXFL 529 = system: LXFL 529
CCRF-CEM = system: CCRF-CEM
NCI-H460 = system: NCI-H460

SMILES	GI50 (TK-10)	GI50 (HCT-116)	GI50 (NCI-H226)	GI50 (OVCAR-8)	GI50 (OVCAR-4)	GI50 (UACC-257)	GI50 (NCI-H23)	GI50 (K562)	GI50 (SNB-19)	GI50 (RXF 393)	GI50 (RPMI-8226)	GI50 (HT-29)	GI50 (SF-539)	GI50 (SK-OV-3)	GI50 (SK-MEL-5)	GI50 (LOX IMVI)	GI50 (LXFL 529)	GI50 (CCRF-CEM)	GI50 (NCI-H460)
O=C(N/N=C1\C(=O)N(c2nccs2)C(=O)C(=O)C1c1nc2ccccc2s1)c1ccccc1O (stereo unspecified)	> 100 µM (inactive)	29.9 µM (inactive)	71.1 µM (inactive)	43 µM (inactive)	39.8 µM (inactive)	35.7 µM (inactive)	29.5 µM (inactive)	19.7 µM (inactive)	60 µM (inactive)	21.1 µM (inactive)	61.4 µM (inactive)	> 100 µM (inactive)	28.1 µM (inactive)	> 100 µM (inactive)	47.5 µM (inactive)	44.3 µM (inactive)	32 µM (inactive)	39.5 µM (inactive)	53.3 µM (inactive)
Cc1cc(C(O)CCCc2ccccc2)cc(C)c1O (stereo unspecified)	31.6 µM (inactive)	–	24 µM (inactive)	47.5 µM (inactive)	–	25.8 µM (inactive)	39.8 µM (inactive)	28.6 µM (inactive)	14.6 µM (inactive)	12 µM (inactive)	24.1 µM (inactive)	–	38.2 µM (inactive)	> 100 µM (inactive)	22.5 µM (inactive)	34 µM (inactive)	47.5 µM (inactive)	27.7 µM (inactive)	36.6 µM (inactive)
CC(=O)OC12/C(=N/O)CCCCCC1c1ccccc12 (stereo unspecified)	> 100 µM (inactive)	84.7 µM (inactive)	> 100 µM (inactive)	> 100 µM (inactive)	60.8 µM (inactive)	74.8 µM (inactive)	70.8 µM (inactive)	39.2 µM (inactive)	> 100 µM (inactive)	29.6 µM (inactive)	33.6 µM (inactive)	> 100 µM (inactive)	–	> 100 µM (inactive)	> 100 µM (inactive)	> 100 µM (inactive)	66.8 µM (inactive)	26.4 µM (inactive)	> 100 µM (inactive)
CCOC(=O)c1cn(CC)c2cc3c(cc2c1=O)SCS3	> 100 µM (inactive)	–	–	> 100 µM (inactive)	> 100 µM (inactive)	> 100 µM (inactive)	> 100 µM (inactive)	> 100 µM (inactive)	> 100 µM (inactive)	> 100 µM (inactive)	> 100 µM (inactive)	> 100 µM (inactive)	> 100 µM (inactive)	> 100 µM (inactive)	> 100 µM (inactive)	> 100 µM (inactive)	> 100 µM (inactive)	> 100 µM (inactive)	> 100 µM (inactive)
CN(C)CCNC(=O)c1cccc2cc3c(Cl)cccc3nc12	1.95 µM (inactive)	0.601 µM (active)	1.15 µM (inactive)	1.1 µM (active)	2.02 µM (inactive)	1.75 µM (inactive)	1.38 µM (inactive)	0.946 µM (active)	1.71 µM (inactive)	1.7 µM (inactive)	1.64 µM (inactive)	0.889 µM (active)	0.873 µM (active)	3.53 µM (inactive)	1.71 µM (inactive)	0.583 µM (active)	1.67 µM (inactive)	–	–
NC(=S)N/N=C(\CCC(=O)Nc1ccccc1[N+](=O)[O-])CC(=O)c1ccco1	> 100 µM (inactive)	> 100 µM (inactive)	> 100 µM (inactive)	> 100 µM (inactive)	> 100 µM (inactive)	> 100 µM (inactive)	> 100 µM (inactive)	> 100 µM (inactive)	> 100 µM (inactive)	> 100 µM (inactive)	> 100 µM (inactive)	> 100 µM (inactive)	> 100 µM (inactive)	> 100 µM (inactive)	> 100 µM (inactive)	> 100 µM (inactive)	> 100 µM (inactive)	> 100 µM (inactive)	> 100 µM (inactive)
COc1cc([C@@H]2c3cc4c(cc3[C@@H](OC(=O)c3cccc(N)c3)C3COC(=O)[C@@H]32)OCO4)cc(OC)c1O (stereo partly specified)	59.3 µM (inactive)	5.71 µM (inactive)	1.15 µM (inactive)	8.05 µM (inactive)	42.1 µM (inactive)	5.69 µM (inactive)	1.19 µM (inactive)	2.02 µM (inactive)	34.8 µM (inactive)	0.632 µM (active)	3.86 µM (inactive)	3.13 µM (inactive)	0.621 µM (active)	11.5 µM (inactive)	0.536 µM (active)	4.47 µM (inactive)	0.76 µM (active)	2.18 µM (inactive)	0.671 µM (active)
CC(C)(CCl)NC(=O)c1cccc(C(=O)NC(C)(C)CCl)n1	> 100 µM (inactive)	> 100 µM (inactive)	> 100 µM (inactive)	–	> 100 µM (inactive)	–	> 100 µM (inactive)	> 100 µM (inactive)	> 100 µM (inactive)	> 100 µM (inactive)	> 100 µM (inactive)	> 100 µM (inactive)	> 100 µM (inactive)	> 100 µM (inactive)	> 100 µM (inactive)	> 100 µM (inactive)	> 100 µM (inactive)	> 100 µM (inactive)	> 100 µM (inactive)
O=C(CC(=O)C1=CNc2ccccc2S1)C(=O)Nc1ccc(Cl)cc1	> 50 µM (inactive)	> 50 µM (inactive)	49.4 µM (inactive)	> 50 µM (inactive)	> 50 µM (inactive)	> 50 µM (inactive)	> 50 µM (inactive)	> 24.3 µM (inactive)	> 50 µM (inactive)	> 50 µM (inactive)	> 50 µM (inactive)	> 50 µM (inactive)	> 50 µM (inactive)	> 50 µM (inactive)	> 50 µM (inactive)	> 50 µM (inactive)	> 50 µM (inactive)	> 50 µM (inactive)	> 50 µM (inactive)
COC(=O)C(=O)C(C#N)c1nc2ccccc2s1 (stereo unspecified)	> 100 µM (inactive)	97.1 µM (inactive)	23.9 µM (inactive)	> 100 µM (inactive)	> 100 µM (inactive)	> 100 µM (inactive)	> 100 µM (inactive)	57.4 µM (inactive)	> 100 µM (inactive)	> 100 µM (inactive)	> 100 µM (inactive)	66.4 µM (inactive)	98.9 µM (inactive)	> 100 µM (inactive)	> 100 µM (inactive)	> 100 µM (inactive)	> 100 µM (inactive)	75.2 µM (inactive)	63.4 µM (inactive)
Cc1cn2c(=O)c3ccccc3nc2s1	> 100 µM (inactive)	> 100 µM (inactive)	> 100 µM (inactive)	> 100 µM (inactive)	76.6 µM (inactive)	> 100 µM (inactive)	> 100 µM (inactive)	> 100 µM (inactive)	> 100 µM (inactive)	> 100 µM (inactive)	> 100 µM (inactive)	> 100 µM (inactive)	88.7 µM (inactive)	> 100 µM (inactive)	> 100 µM (inactive)	> 100 µM (inactive)	> 100 µM (inactive)	> 100 µM (inactive)	> 100 µM (inactive)
CN(c1ccccc1)c1c(Cl)c(=O)oc2c1ccc1occc12	> 100 µM (inactive)	81.8 µM (inactive)	> 100 µM (inactive)	> 100 µM (inactive)	> 100 µM (inactive)	> 100 µM (inactive)	> 100 µM (inactive)	51.2 µM (inactive)	59.7 µM (inactive)	> 100 µM (inactive)	86.9 µM (inactive)	> 100 µM (inactive)	> 100 µM (inactive)	–	> 100 µM (inactive)	97.3 µM (inactive)	> 100 µM (inactive)	64.7 µM (inactive)	> 100 µM (inactive)
Cc1ccc(/N=N/c2c(C)nn(-c3ccccc3)c2C)c(Br)c1	> 100 µM (inactive)	41.3 µM (inactive)	> 100 µM (inactive)	> 100 µM (inactive)	> 100 µM (inactive)	89.7 µM (inactive)	> 100 µM (inactive)	27.3 µM (inactive)	> 100 µM (inactive)	54 µM (inactive)	36 µM (inactive)	76.9 µM (inactive)	> 100 µM (inactive)	> 100 µM (inactive)	66.1 µM (inactive)	53 µM (inactive)	95.3 µM (inactive)	27 µM (inactive)	62.8 µM (inactive)
O=C(Nc1nc2ncn(CCOC(=O)c3ccccc3)c2c(=S)[nH]1)c1ccccc1	> 100 µM (inactive)	> 100 µM (inactive)	47.5 µM (inactive)	45.6 µM (inactive)	23.5 µM (inactive)	55.8 µM (inactive)	–	60.8 µM (inactive)	71.9 µM (inactive)	18.6 µM (inactive)	> 100 µM (inactive)	> 100 µM (inactive)	30.5 µM (inactive)	> 100 µM (inactive)	> 100 µM (inactive)	> 100 µM (inactive)	49.3 µM (inactive)	> 100 µM (inactive)	48.1 µM (inactive)
CC1=C(C)C(=O)c2c(cc3ccccn23)C1=O	27 µM (inactive)	–	26.8 µM (inactive)	22.8 µM (inactive)	27.8 µM (inactive)	–	10.2 µM (inactive)	27.5 µM (inactive)	15.3 µM (inactive)	14.7 µM (inactive)	15.8 µM (inactive)	18.5 µM (inactive)	20 µM (inactive)	20 µM (inactive)	10.4 µM (inactive)	5.14 µM (inactive)	15.3 µM (inactive)	27 µM (inactive)	15.5 µM (inactive)
